Experimental data reported in article PMC4300089, “Structure-Guided Design of Selective Epac1 and Epac2 Agonists” (PLoS Biology, 2015).

Molecular target: T1, Epac2^Δ280 (Mus musculus, UniProt Q9EQZ6)
T1 construct: made in house
T1 sequence (Q9EQZ6 281-993 isoform Q9EQZ6-3): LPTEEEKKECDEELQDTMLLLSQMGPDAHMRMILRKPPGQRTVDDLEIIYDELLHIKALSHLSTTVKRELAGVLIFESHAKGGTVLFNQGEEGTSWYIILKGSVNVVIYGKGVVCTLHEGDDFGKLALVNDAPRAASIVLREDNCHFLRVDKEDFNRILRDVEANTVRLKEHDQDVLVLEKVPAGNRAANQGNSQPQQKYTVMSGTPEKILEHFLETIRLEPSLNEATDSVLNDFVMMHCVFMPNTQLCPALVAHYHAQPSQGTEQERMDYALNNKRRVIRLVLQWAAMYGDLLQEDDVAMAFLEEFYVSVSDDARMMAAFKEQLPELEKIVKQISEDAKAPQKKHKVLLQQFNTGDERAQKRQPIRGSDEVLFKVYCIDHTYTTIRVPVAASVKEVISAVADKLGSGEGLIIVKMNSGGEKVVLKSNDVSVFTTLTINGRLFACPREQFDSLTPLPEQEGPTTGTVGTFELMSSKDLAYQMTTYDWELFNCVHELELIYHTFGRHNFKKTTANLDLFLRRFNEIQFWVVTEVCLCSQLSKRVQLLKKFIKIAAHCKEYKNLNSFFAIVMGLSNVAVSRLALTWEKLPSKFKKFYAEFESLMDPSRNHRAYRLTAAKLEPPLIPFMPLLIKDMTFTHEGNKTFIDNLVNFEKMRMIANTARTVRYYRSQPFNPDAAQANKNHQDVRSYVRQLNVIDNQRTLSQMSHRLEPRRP
Assay: Epac activation assay (Rap1B•mGDP fluorescence nucleotide exchange), Epac2^Δ280
Type: biochemical
Settings: Epac2^Δ280; for Rel. kmax: maximal activity relative to cAMP
Procedure: Murine Epac2 was used as all previous structural studies were performed with it.
The activity of Epac was determined by a fluorescence assay. […] The fluorescence intensity of Rap1B•mGDP is approximately twice that of free mGDP, and thus, nucleotide exchange can be observed as a decay in fluorescence upon the addition of excess unlabeled GDP.

Compound | AC50 | Rel. kmax
Nc1ncnc2c1ncn2[C@@H]1O[C@@H]2COP(O)(=S)O[C@H]2[C@H]1O (some centres unmarked) [R-000, Rp-cAMPS] | 10000 nM | 0.2
CSc1nc2c(N)ncnc2n1[C@@H]1O[C@@H]2COP(=O)(O)O[C@H]2[C@H]1O [L-024, 8-MeT-cAMP] | 140 nM | 2.0
Nc1ncnc2c1nc(Cl)n2[C@@H]1O[C@@H]2COP(=O)(O)O[C@H]2[C@H]1Cl [D-006, 8,2′-DCl-cAMP] | 14000 nM | 0.7
Nc1ncnc2c1nc(N1CCCCC1)n2[C@@H]1O[C@@H]2CO[P@](O)(=S)O[C@H]2[C@H]1O [S-110, Sp-8-PIP-cAMPS] | 9500 nM | 3.7
Nc1ncnc2c1nc(SCc1ccccc1)n2[C@@H]1O[C@@H]2COP(=O)(O)O[C@H]2[C@H]1F [D-011, 8-BnT-2′-F-cAMP] | 2900 nM | 1.6
Nc1ncnc2c1nc(Sc1ccc(O)cc1)n2[C@@H]1O[C@@H]2CO[P@](O)(=S)O[C@H]2[C@H]1F [S-201, Sp-8-pOHPT-2′-F-cAMPS] | 1600 nM | 1.0
CC(C)Nc1nc2c(N)ncnc2n1[C@@H]1O[C@@H]2CO[P@](O)(=S)O[C@H]2[C@H]1O [S-050, Sp-8-iPrA-cAMPS] | 9000 nM | 1.4
Nc1ncnc2c1nc(SCc1ccc(Cl)cc1)n2[C@@H]1O[C@@H]2CO[P@](O)(=S)O[C@H]2[C@H]1O [S-260, Sp-8-pCBnT-cAMPS] | 80 nM | 4.3
COc1ccc(CSc2nc3c(N)ncnc3n2[C@@H]2O[C@@H]3CO[P@](O)(=S)O[C@H]3[C@H]2O)cc1 [S-250, Sp-8-pMeOBnT-cAMPS] | 110 nM | 5.4
CSc1nc2c(N)ncnc2n1[C@@H]1O[C@@H]2CO[P@](O)(=S)O[C@H]2[C@H]1O [S-160, Sp-8-MeT-cAMPS] | 300 nM | 7.4
Nc1ncnc2c1nc(SCc1cccc([N+](=O)[O-])c1)n2[C@@H]1O[C@@H]2CO[P@](O)(=S)O[C@H]2[C@H]1O [S-290, Sp-8-mNBnT-cAMPS] | 160 nM | 4.3
CSc1nc2c(N)ncnc2n1[C@@H]1O[C@@H]2CO[P@](O)(=S)O[C@H]2[C@H]1F [S-170, Sp-8-MeT-2′-F-cAMPS] | 6900 nM | 2.8
Nc1ncnc2c1nc(SCc1cccc(C(F)(F)F)c1)n2[C@@H]1O[C@@H]2CO[P@](O)(=S)O[C@H]2[C@H]1O [S-300, Sp-8-mTFMeBnT-cAMPS] | 140 nM | 5.0
CCCCCCNc1nc2c(N)ncnc2n1[C@@H]1O[C@@H]2COP(=O)(O)OC2[C@@H]1O (stereo partly drawn) [L-009, 8-HA-cAMP] | 2500 nM | 2.0
COc1nc2c(N)ncnc2n1[C@@H]1O[C@@H]2CO[P@](O)(=S)O[C@H]2[C@H]1O [S-140, Sp-8-MeO-cAMPS] | 700 nM | 7.3
COc1nc2c(N)ncnc2n1[C@@H]1O[C@@H]2COP(=O)(O)O[C@H]2[C@H]1O [L-022, 8-MeO-cAMP] | 600 nM | 2.0
CN(C)c1nc2c(N)ncnc2n1[C@@H]1O[C@@H]2COP(=O)(O)O[C@H]2[C@H]1O [L-015, 8-DMeA-cAMP] | 1400 nM | 3.6
CO[C@@H]1[C@@H]2O[P@@](O)(=S)OC[C@H]2O[C@H]1n1c(Sc2ccc(O)cc2)nc2c(N)ncnc21 [S-202, Sp-8-pOHPT-2′-O-Me-cAMPS] | 1600 nM | 1.4
Nc1ncnc2c1nc(Cl)n2[C@@H]1O[C@@H]2CO[P@](O)(=S)O[C@H]2[C@H]1Cl [S-021] | 12000 nM | 0.5
CCN(CC)c1nc2c(N)ncnc2n1[C@@H]1O[C@@H]2COP(=O)(O)O[C@H]2[C@H]1O [L-016, 8-DEA-cAMP] | 9000 nM | 5.1
CNc1nc2c(N)ncnc2n1[C@@H]1O[C@@H]2CO[P@](O)(=S)O[C@H]2[C@H]1OC [S-034, Sp-8-MeA-2′-O-Me-cAMPS] | 20000 nM | 0.7
O=P1(O)OCC2OC(n3cnc4c(NCc5ccccc5)ncnc43)C(O)C2O1 (centres unmarked) [N-001, N^6-Bn-cAMP] | 1100 nM | 0.3
Sp-8-ADOA-cAMPS [S-060] | 6200 nM | 2.1
CO[C@@H]1[C@@H]2OP(=O)(O)OC[C@H]2O[C@H]1n1c([Se]Cc2ccccc2)nc2c(N)ncnc21 [D-013, 8-BnSe-2′-O-Me-cAMP] | 3600 nM | 2.3
Nc1ncnc2c1nc(N)n2[C@@H]1O[C@@H]2COP(=O)(O)O[C@H]2[C@H]1O [L-003, 8-NH2-cAMP] | 200 nM | 0.7

Compound | AC50 | Rel. kmax
8-PIA-cAMP [L-019] | 19000 nM | 3.8
Nc1ncnc2c1nc(NCCCCO)n2[C@@H]1O[C@@H]2COP(=O)(O)O[C@H]2[C@H]1O [L-008, 8-OHBuA-cAMP] | 2600 nM | 1.6
CCN(CC)c1nc2c(N)ncnc2n1[C@@H]1O[C@@H]2CO[P@](O)(=S)O[C@H]2[C@H]1O [S-090, Sp-8-DEA-cAMPS] | 10000 nM | 4.1
CC(C)N(C)c1nc2c(N)ncnc2n1[C@@H]1O[C@@H]2CO[P@](O)(=S)O[C@H]2[C@H]1O [S-100, Sp-8-iPrMeA-cAMPS] | 7000 nM | 4.5
CC(C)(C)c1ccc(CSc2nc3c(N)ncnc3n2[C@@H]2O[C@@H]3CO[P@](O)(=S)O[C@H]3[C@H]2O)cc1 [S-240, Sp-8-ptBuBnT-cAMPS] | 100 nM | 5.0
CO[C@@H]1[C@@H]2OP(=O)(O)OC[C@H]2O[C@H]1n1c(O)nc2c(N)ncnc21 [D-010, 8-OH-2′-O-Me-cAMP] | 6800 nM | 0.5
Nc1ncnc2c1nc(N1CCCC1)n2[C@@H]1O[C@@H]2COP(=O)(O)O[C@H]2[C@H]1O [L-017, 8-Pyr-cAMP] | 3900 nM | 4.4
CCN(C)c1nc2c(N)ncnc2n1[C@@H]1O[C@@H]2CO[P@](O)(=S)O[C@H]2[C@H]1O [S-080, Sp-8-EMeA-cAMPS] | 1800 nM | 7.6
Nc1ncnc2c1nc(SCc1ccc(F)cc1)n2[C@@H]1O[C@@H]2CO[P@](O)(=S)O[C@H]2[C@H]1O [S-280, Sp-8-pFBnT-cAMPS] | 110 nM | 4.9
Nc1ncnc2c1nc(NCCO)n2[C@@H]1O[C@@H]2COP(=O)(O)O[C@H]2[C@H]1O [L-007, 8-OHEA-cAMP] | 2600 nM | 1.0
CN(C)c1nc2c(N)ncnc2n1[C@@H]1O[C@@H]2CO[P@](O)(=S)O[C@H]2[C@H]1O [S-070, Sp-8-DMeA-cAMPS] | 2100 nM | 9.3
C[Se]c1nc2c(N)ncnc2n1[C@@H]1O[C@@H]2COP(=O)(O)O[C@H]2[C@H]1O [L-027, 8-MeSe-cAMP] | 180 nM | 1.5
C[C@H](O)CNc1nc2c(N)ncnc2n1[C@@H]1O[C@@H]2COP(=O)(O)O[C@H]2[C@H]1O [L-012, 8-(S-2-OHPrA)-cAMP] | 8000 nM | 0.5
CO[C@@H]1[C@@H]2O[P@@](O)(=S)OC[C@H]2O[C@H]1n1c(SC)nc2c(N)ncnc21 [S-180, Sp-8-MeT-2′-O-Me-cAMPS] | 3700 nM | 3.2
NCCNc1nc2c(N)ncnc2n1[C@@H]1O[C@@H]2COP(=O)(O)O[C@H]2[C@H]1O [L-006, 8-AEA-cAMP] | 1600 nM | 0.5
[N-]=[N+]=Nc1nc2c(N)ncnc2n1[C@@H]1O[C@@H]2COP(=O)(O)O[C@H]2[C@H]1O [L-004, 8-N3-cAMP] | 200 nM | 0.7
O=P1(O)OC[C@H]2O[C@@H](n3cnc4c(Nc5ccccc5)ncnc43)[C@H](O)[C@@H]2O1 [N-003, N^6-Phe-cAMP] | 300 nM | 0.6
Nc1ncnc2c1nc([Se]Cc1ccccc1)n2[C@@H]1O[C@@H]2COP(=O)(O)O[C@H]2[C@H]1O [L-028, 8-BnSe-cAMP] | 30 nM | 1.7
Sp-8-PIA-cAMPS [S-120] | 14000 nM | 2.3
CNc1nc2c(N)ncnc2n1[C@@H]1O[C@@H]2CO[P@](O)(=S)O[C@H]2[C@H]1F [S-032, Sp-8-MeA-2′-F-cAMPS] | 9500 nM | 3.9
NCCCCCCNc1nc2c(N)ncnc2n1[C@@H]1O[C@@H]2COP(=O)(O)O[C@H]2[C@H]1O [L-010, 8-AHA-cAMP] | 1200 nM | 1.8
Nc1ncnc2c1nc(Sc1ccc(O)cc1)n2[C@@H]1O[C@@H]2CO[P@](O)(=S)O[C@H]2[C@H]1O [S-200, Sp-8-pOHPT-cAMPS] | 70 nM | 1.2
Nc1ncnc2c1nc(Cl)n2[C@@H]1O[C@@H]2COP(O)(=S)O[C@@H]2C1O (some centres unmarked) [S-020, Sp-8-Cl-cAMPS] | 400 nM | 3.8
C=CCO[C@@H]1[C@@H]2OP(=O)(O)OC[C@H]2O[C@H]1n1cnc2c(N)ncnc21 [Z-007, 2′-O-All-cAMP] | 70000 nM | 1.0
